The record followed here is paper PMC3951324, “Side Chain Hydrophobicity Modulates Therapeutic Activity and Membrane Selectivity of Antimicrobial Peptide Mastoparan-X” (PLoS ONE, 2014).

Ends that are not written are not given here.

Data set [1] concerns human red blood cells (RBCs). Kind of data set: Haemolysis assay. In kind it is cell-based. The text has this: All Fmoc (9H-fluoren-9-yl-methyloxycarbonyl) L-amino acids and HATU (1-[Bis(dimethylamino)methylene]-1H-1,2,3-triazolo[4,5-b]pyridinium 3-oxid hexafluorophosphate, N-[(Dimethylamino)-1H-1,2,3-triazolo-[4,5-b]pyridin-1-ylmethylene]-N-methylmethanaminium hexafluorophosphate N-oxide) were purchased from GLS China (GL Biochem, Shanghai, China). Fmoc-2-amino-decanoic acid was obtained from Watanabe Chemical Industries, Ltd (Hiroshima, Japan). Lys and Trp were side-chain-protected as tert-butoxycarbonyl, Asn was sidechain protected with trityl. Tentagel resin was purchased from NovaBiochem (Merck, Darmstadt, Germany). TFA (trifluoroacetic acid), TIS (triisopropylsilane), HEPES (N-(2-hydroxyethyl)piperazine-N-(2-ethanesulfonic acid)), 2,4,6-collidine and pyrene were purchased from Sigma-Aldrich (Brøndby, Denmark). Pyridine, sodium hydroxide pellets and sodium chloride was purchased from J.T. Baker Chemicals (Phillipsburg, NJ, USA). Filter supports and Hamilton extrusion syringes, POPG (1-palmitoyl-2-oleoyl-sn-glycero-3-[phospho-rac-(1-glycerol)] sodium salt), and POPC (1-palmitoyl-2-oleoyl-sn-glycero-3-phosphocholine) were purchased from Avanti Polar Lipids (Alabaster, AL). All compounds were used without further purification. Membrane filters for extrusion (100 nm pore size, polycarbonate) were purchased from Whatman (Maidstone, UK). Cuvettes (4×10 mm, quartz, Suprasil) were purchased from Hellma (Müllheim, Germany). Purified human erythrocytes for the haemolysis studies were provided by Bioneer (Hørsholm, Denmark), and were stored at 4°C for a maximum of three days before use.
The assay was conducted as described in Etzerodt et al..

A short description of data set [2]: Pyrene-cmc assay (micelle/aggregate formation). In kind it is physicochemical. As for the experimental part: Fluorescence excitation spectra were collected using an Olis modernized SLM8000 fluorescence spectrophotometer equipped with single-grating emission and double-grating excitation monochromator. The fluorometer was equipped with photon counter detectors. Pyrene was used to probe micellation as it is sensitive to environment hydrophobicity. Peptides were incubated in concentrations of 0.1–1000 µM in 10 mM HEPES, 100 mM sodium chloride, pH 7.4 buffer containing 75 nM pyrene. Samples were incubated for 2 h at 60°C followed by incubation overnight at room temperature and kept in the dark until measured. Measurements were carried out at 37°C. Excitation spectra were collected using emission wavelength 390 nm and 16 nm emission slit sizes. Excitation spectra were scanned in range 310–350 nm with excitation slits sizes of 0.5 nm. The excitation spectrum shift denotes the formation of micelles/aggregates (hydrophobic cavity), which is gauged by intensity ratio R = I339/I333 [29],[30]. The plot of R versus the detergent/peptide concentration, c, measures the partitioning of pyrene into the formed micelles/aggregates. The intensity ratio is fitted using the sigmoidal function [drawing 1] , where R0 and ΔR denote the initial and change in intensity ratio, respectively. α and ci denote the normalized slope and peptide concentration at which curve inflection occurs, respectively. […]

Data set [3] is described as follows: Peptide partitioning by ITC. In kind it is physicochemical. The note with it: 37°C. As for the experimental part: Lipid stock solutions of POPC and POPG were prepared in chloroform∶methanol (9∶1). Mixtures of POPC∶POPG (3∶1) were prepared and the organic solvent was evaporated under a gentle stream of nitrogen. The lipid films were kept in vacuum (P<0.1 Pa) overnight in order to remove the residual solvent. Buffer containing 10 mM HEPES and 100 mM sodium chloride (pH 7.4) was added to the lipid films, and they were hydrated for 60 min followed by extrusion through 100 nm using an Avanti mini-extruder. Dynamic Light Scattering (DLS, Brookhaven Instrument Corporation, ZetaPALS) was used for measuring the liposome size distribution. The effective lipid concentration was determined by inductively coupled plasma atomic emission spectroscopy (ICP-AES Vista AX, Varian).
The partitioning of AMPs onto lipid membranes was investigated by isothermal titration calorimetry (ITC, iTC200, Microcal, 204 µL cell volume). For the peptide analogues MPX, Ala1 and Ala14, 10 mM […] (3∶1) LUVs were injected (19×2 µL) into a 20 µM peptide solution at T = 37°C. The speed of the stirrer was 1000 rpms, and all titration were initiated with a 0.5 µL pre-injection. The heat-traces were integrated using custom made software, and the heat of partitioning was analysed using a partitioning isotherm based on Gouy-Chapman-Stern description of the electrostatic interaction of the peptide and membrane, [32]. The effective charge of the peptide (zeff), the partitioning coefficient of insertion (Kins), the molar enthalpy of partitioning ( [drawing 4] ), and the heat of dilution (qdil) were extracted as fitting parameters. The effective partitioning coefficient was derived as [drawing 5] where F is Faradays constant, [drawing 6] is the electrostatic potential evaluated at the interface of a fully charged membrane (25mol% negative charge before insertion of the first peptide), and R is the ideal gas constant. The instrument was electrically calibrated, and blank titration of LUVs into buffer was performed to ensure that heat of dilution could be modelled as a constant in the data analysis. Each titration was conducted in triplicates.
(In general: In ITC the heat of successive injections is recorded.)

On to “INWKGIAAMAKKLL-NH2 [MPX, mastoparan X, reference compound]”, for which the “% haemolysis” value in data set [1] (human RBCs, 50 µM peptide) is listed as 15%. In addition, in data set [1] (purified human erythrocytes, assay as in Etzerodt et al. [14]), the “H5, concentration at which 5% haemolysis has been obtained” value came out at 18 ± 2 µM. Besides, the “Critical micelle concentration (cmc)” value in data set [2] (pyrene (75 nM) fluorescence excitation shift I339/I333, 10 mM HEPES, 100 mM NaCl, pH 7.4, peptide 0.1–1000 µM, 2 h 60°C then overnight RT, measured at 37°C, cmc = onset of sigmoid, triplicates) is given as over 1000 µM. In data set [2] (pyrene assay, no shift in pyrene excitation spectrum in covered concentration range, pH 7.4, 37°C), the cmc is listed as over 1 mM. Besides, the “effective charge (zeff) of the peptide” value in data set [3] (10 mM POPC∶POPG (3∶1) 100 nm LUVs injected (19×2 µL) into 20 µM peptide, pH 7.4, Gouy-Chapman-Stern fit, triplicates) was 2.5±0.1. Further, in data set [3] (10 mM POPC∶POPG (3∶1) LUVs into 20 µM peptide, pH 7.4, Gouy-Chapman-Stern fit, value is Kins divided by 10^5, triplicates), the “partition coefficient of insertion Kins/10^5” value is recorded as 4.2±0.2. The “molar enthalpy of partitioning” value in data set [3] (10 mM POPC∶POPG (3∶1) LUVs into 20 µM peptide, pH 7.4, triplicates) is -5.74 ± 0.072 kcal/mol. Also, in data set [3] (derived from Kins, zeff and the surface potential of fully charged membrane (25 mol% negative charge), value is Keff divided by 10^8), the “effective partition coefficient Keff/10^8” value turned out to be 1.6±0.2.
